The test system of test [1] is RAW 264.7 macrophages. In words: Activity of acetylated vs deacetylated recombinant PCSK9 on RAW 264.7 macrophages (western blot for LDLR, PCSK9). Conditions: recombinant PCSK9 pretreated with pCAF and acetyl-CoA vs SIRT1 and NAD+, 15 mins (FIG. 7). The format is cell-based, murine. How it is done:
Recombinant PCSK9 pretreated with SIRT1 and NAD+ or pCAF and acetyl-CoA were added on RAW 264.7 macrophages for 15 mins and lysed, separated by SDS-PAGE and blotted for LDLR, PCSK9 and b-actin. Representative bar graphs of LDLR, PCSK9 normalized to b-actin and PCSK9 expression normalized to LDLR expression.
Human HepG2 hepatocytes (American Type Culture Collection, Manassas, Va.) and murine RAW 264.7 cells (Mouse leukaemic monocyte macrophage cell line) were cultured in DMEM containing 10% fetal bovine serum (v/v). AML12 mouse hepatoma cells were cultured in a 1:1 (v/v) mixture of DMEM and Ham's F12 medium supplemented with insulin (5 μg ml-1), transferrin (5 μg ml-1), selenium (5 ng ml-1), dexamethasone (40 ng ml-1), and 10% fetal bovine serum (v/v). Where indicated, AML12 cells were exposed to 10 μM SRT3025 in 1% DMSO (v/v). The cells were maintained in a humidified atmosphere with 5% CO2 at 37° C.
Substrate protein, PCSK9 was incubated with 2 μg of recombinant pCAF and 50 μM acetyl-CoA in 20 μL of acetylation buffer (250 mM Tris-HCl [pH9.0], 20 mM MgCl2, 250 mM NaCl, 2.5 mM DTT). Reaction mixtures were incubated at 37° C. for 1 hour. Reaction was stopped by freezing. […] The reactions were analyzed by western blotting using anti-PCSK9 antibody (Abcam) to verify loading and anti-acetyl lysine (Cell signalling) to verify acetylation.
In general terms: A western blot detects proteins with antibodies after separation by electrophoresis.

Test [2] deals with T1, SIRT1 (Homo sapiens, UniProt Q96EB6).
T1 sequence (Q96EB6 1-747): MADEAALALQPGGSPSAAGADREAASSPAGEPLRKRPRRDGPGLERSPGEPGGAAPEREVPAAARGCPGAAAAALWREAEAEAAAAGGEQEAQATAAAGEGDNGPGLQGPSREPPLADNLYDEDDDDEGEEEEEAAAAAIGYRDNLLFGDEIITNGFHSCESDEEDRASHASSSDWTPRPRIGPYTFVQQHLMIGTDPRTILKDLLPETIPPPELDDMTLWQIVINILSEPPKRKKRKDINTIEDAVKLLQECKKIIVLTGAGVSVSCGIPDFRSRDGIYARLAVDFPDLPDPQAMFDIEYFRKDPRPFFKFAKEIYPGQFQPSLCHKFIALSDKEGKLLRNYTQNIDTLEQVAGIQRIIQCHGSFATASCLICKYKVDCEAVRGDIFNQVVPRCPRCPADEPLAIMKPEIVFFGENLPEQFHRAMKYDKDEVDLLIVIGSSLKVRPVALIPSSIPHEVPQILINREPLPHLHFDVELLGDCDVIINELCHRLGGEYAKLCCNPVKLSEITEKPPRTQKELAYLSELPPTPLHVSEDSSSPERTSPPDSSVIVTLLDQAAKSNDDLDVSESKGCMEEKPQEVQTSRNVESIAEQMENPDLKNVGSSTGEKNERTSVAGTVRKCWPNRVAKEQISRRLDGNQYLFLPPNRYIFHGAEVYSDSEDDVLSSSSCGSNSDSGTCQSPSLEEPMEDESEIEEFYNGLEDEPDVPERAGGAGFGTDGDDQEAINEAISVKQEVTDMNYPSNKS
In words: Fluorogenic peptide deacetylation assay. The format is biochemical. The settings on record: increasing concentrations of SRT1720 (1 μM, 10 μM, 100 μM, 1 mM), 1 μg SIRT1, acetyl-Lys421 PCSK9-AMC peptide, compared to negative and positive controls (FIG. 4). How it is done: To analyse the deacetylation activity of SIRT1 on PCSK9, an acetylated PCSK9 peptide was designed with acetylated lysine 421 (Lys421)-tagged to an AMC fluorophore. The acetyl-PCSK9-AMC peptide was dissolved in DMSO and incubated with 1 μg SIRT1 with 1 μM, 10 μM, 100 μM and 1 mM SIRT1 activator SRT1720 in the deacetylation assay buffer containing 50 mM Tris-HCl [pH8.0], 1 mM MgCl2, 125 mM NaCl, 2.5 mM potassium chloride and 500 μM NAD+. Reactions were allowed to proceed for an incubation period of 1 hr at 37° C. Prior to quenching the reaction, 2 mM nicotinamide was added to 1× developing buffer (BML-KI176-1250, Enzo Lifesciences) in the deacetylation assay buffer (50 mM Tris-HCl [pH8.0], 1 mM MgCl2, 125 mM NaCl, 2.5 mM potassium chloride). At each time point, 50 μL of the reaction was removed and mixed with 50 μL of the developer solution. The quenched samples were kept at 37° C. for 45 min prior to fluorescence reading. The release of the fluorescent AMC was measured using a Tecan M200 PRO fluorometric plate reader with an excitation 360 nm and detection of emitted light in the range of […]. All reactions were normalized to control reactions in the absence of β-NAD (Ffinal=F+NAD−F-NAD).

Test [3] deals with T2, SIRT1 (Mus musculus, UniProt Q923E4).
T2 construct: host or cells: ApoE-/- mice (endogenous protein of the animal)
T2 sequence (Q923E4 1-737): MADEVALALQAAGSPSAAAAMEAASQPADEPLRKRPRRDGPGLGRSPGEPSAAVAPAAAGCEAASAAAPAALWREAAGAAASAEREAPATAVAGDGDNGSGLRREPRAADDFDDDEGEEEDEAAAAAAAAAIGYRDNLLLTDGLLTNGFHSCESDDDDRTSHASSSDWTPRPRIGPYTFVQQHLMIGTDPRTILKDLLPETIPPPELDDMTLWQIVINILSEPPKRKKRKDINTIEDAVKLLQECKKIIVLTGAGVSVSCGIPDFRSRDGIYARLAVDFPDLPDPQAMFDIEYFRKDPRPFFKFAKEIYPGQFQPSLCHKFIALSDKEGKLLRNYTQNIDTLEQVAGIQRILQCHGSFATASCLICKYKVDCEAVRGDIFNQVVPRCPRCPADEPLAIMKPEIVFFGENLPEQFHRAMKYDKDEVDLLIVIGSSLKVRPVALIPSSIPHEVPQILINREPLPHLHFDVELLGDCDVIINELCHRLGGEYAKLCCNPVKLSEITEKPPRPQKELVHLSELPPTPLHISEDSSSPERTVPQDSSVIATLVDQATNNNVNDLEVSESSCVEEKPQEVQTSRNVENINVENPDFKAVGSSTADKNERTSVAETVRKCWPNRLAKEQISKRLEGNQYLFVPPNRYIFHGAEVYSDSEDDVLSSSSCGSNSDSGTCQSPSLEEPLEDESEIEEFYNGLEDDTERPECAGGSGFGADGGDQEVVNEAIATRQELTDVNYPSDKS
The settings on record: ApoE-/- mice; cited from earlier work.

Turning to “acetyl-PCSK9: Recombinant PCSK9 pretreated with pCAF and acetyl-CoA”, the “activity of PCSK9 (LDLR, PCSK9 expression normalized to b-actin)” value in test [1] was “more active”. Turning to `O=C(Nc1ccccc1-c1cn2c(CN3CCNCC3)csc2n1)c1cnc2ccccc2n1` [SRT1720], the “fluorescence caused by deacetylation of fluorogenic PCSK9 peptide” value in test [2] is “increase in fluorescence”.

Turning to `COCCCc1sc(-c2ccccc2)nc1C(=O)Nc1ccccc1-c1nc2cc(CN3CCCC3)cnc2s1` [SRT3025], in test [3], the LDL-cholesterol result is “reducing LDL-cholesterol”, the PCSK9 secretion entry is “reduction in PCSK9 secretion” and the atherosclerosis entry is “protects against atherosclerosis”.

(Values after patent US20180066070A1, “ACETYLATED PCSK9” (UNIVERSITAT ZURICH, priority 2015, published 2018).)
